The test system of test [1] is MDA-MB-231 and SkBr3 cells. The test is described as follows: RNA sequencing, transcripts common to both cell lines. The format is cell-based, human. The settings on record: MitoQ 500 nM, 48 h. How it is done: MDA-MB-231 and SkBr3 cancer cells were treated ±MitoQ for 48 h. Total mRNA was then extracted using the NucleoSpin RNA kit (Macherey-Nagel®), including DNAse treatment in the intermediary steps. mRNAs were quantified using the Qubit BR dsRNA assay kit (Thermo Fisher Scientific®), and mRNA integrity was evaluated on the Agilent 2100 Bioanalyzer using the RNA 6000 nano kit (Agilent®). All samples had RNA integrity number values ≥7.5. Libraries from control and treated samples were prepared starting from 150 ng of total mRNA using the KAPA RNA HyperPrep Kit with RiboErase (HMR) kit (KAPA Biosystems®) following the manufacturer's recommendations (KR1351—v1.16). Libraries were equimolarly pooled and sequenced on a single lane of an Illumina® NovaSeq 6000 platform. All libraries were sequenced at a depth of >50 million paired-end reads (2×100 bp reads) per sample. All sequencing data were analyzed using the Automated Reproducible MOdular workflow for preprocessing and differential analysis of RNAseq data (ARMOR) pipeline. In this pipeline, reads underwent a quality check using FastQC. Quantification and quality control results were summarized in a MultiQC report before being mapped using Salmon to the transcriptome index that was built using all Ensembl cDNA sequences obtained in the Homo_sapiens.GRCh38.cdna.all.fa file. Then, estimated transcript abundances from Salmon were imported into R using the tximeta package, and analyzed for differential gene expression with edgeR. To get a robust signature, only genes with |log 2 Fold Change|>1 and P<0.01 were retained.
While EMT and sternness markers are usual suspects when testing antimetastatic strategies, it was decided to go deeper in the understanding of the molecular effects of MitoQ, and performed unbiased RNA sequencing (RNAseq) using cells treated for 48 h±MitoQ (500 nM). […] On independent samples upon the same conditions (including |log 2 Fold Change|>1 and P<0.01), RT-qPCR on the two cell lines validated all genes as potential biomarkers of human breast cancer cell response to MitoQ, to the exception of EID1, PEG10, FTH1 and NUPR1 (FIG. 12A-M and Table 7).

Test [2] concerns MDA-MB-231 human breast cancer cells. The test is described as follows: Seahorse oximetry, oxygen consumption rates (OCRs). Type of test: cell-based. The settings on record: MitoQ 100 nM, 48 h. How it is done:
(§1) Oxygen consumption rates (OCRs) were determined on a Seahorse XF96 bioenergetic analyzer using the XF cell Mito stress kit (Agilent Technologies®), according to manufacturer's recommendations. Briefly, MDA-MB-231 (10^4 cells/well), SkBr3 (10^4 cells/well), MDA-MB-436 (10^4 cells/well) or MCF10A (10^5 cells/well) were plated on XF96 culture plates 16 h before experiments in DMEM containing 10% FBS, and treated ±MitoQ for 48 h. On the day of analysis, culture media were replaced by DMEM containing 10 mM glucose, 2 mM glutamine, 1.85 g/L NaCl, 3 mg/L phenol red, pH 7.4. Cells were incubated for 1 h in a CO2-free incubator before analysis. Sequentially, basal OCR was acquired without treatment; ATP-linked OCR after the addition of 1 μM of ATP synthase inhibitor oligomycin; maximal OCR after mitochondrial potential disruption using 1 μM of ionophore carbonyl cyanide-4-(trifluoromethoxy) phenylhydrazone (FCCP); and non-mitochondrial OCR after the addition of 0.5 μM of Complex I inhibitor rotenone together with 0.5 μM of Complex III inhibitor antimycin A. All data were normalized by total protein content (Bio-Rad® Protein Assay; catalogue #5000006) measured right after oximetry. Mitochondrial OCRs (mtOCRs) were calculated by subtracting non-mitochondrial OCRs to the corresponding basal, maximal and ATP-linked OCRs.

The subject of test [3] is MCF10A normal breast epithelial cells. Description: Seahorse oximetry, oxygen consumption rates (OCRs). Particulars: MitoQ 100 nM, 48 h. Type of test: cell-based, human. As to the method: as §1
Test [4] has as its system MDA-MB-436 breast cancer cells. The test is described as follows: Seahorse oximetry, oxygen consumption rates (OCRs). Particulars: MitoQ 100 nM, 48 h. The format is cell-based, human. As to the method: as §1
In test [5] the test system is MDA-MB-231 human breast cancer cells. Description: Mitochondrial superoxide, EPR with MitoTEMPO-H ±PEG-SOD2. The format is cell-based. The settings on record: MitoQ 100 nM, 48 h. As to the method:
Mitochondrial superoxide levels were determined using electron paramagnetic resonance (EPR) with MitoTEMPO-H as a specific mitochondrial superoxide probe ±PEG-SOD2 to specifically assign signals to mitochondrial superoxide. EPR measurements were performed using a Bruker EMX-Plus spectrometer, operating in X-band (9.85 GHz) and equipped with a PremiumX ultra low noise microwave bridge and a SHQ high sensitivity resonator. Typical settings were: microwave power: 20 mW; attenuation: 10 dB; modulation frequency: 100 kHz; modulation amplitude: 0.1 mT; time constant: 20.48 ms; conversion time: 22.58 ms; sweep width: 0.15 mT. Briefly, MDA-MB-231, SkBr3, MCF10A or MDA-MB-436 cells were treated ±MitoQ for 48 h, harvested and resuspended in PBS at 2×10^6 cells/mL. The experimental mixture was prepared with cell suspension, 1 mM DTPA and 150 μM MitoTEMPO-H. It was then aspirated into a gas-permeable polytetrafluoroethylene (PTFE) tubing that was placed in a quartz tube opened at both ends. The tube was directly inserted inside the EPR cavity that was heated at 310° K with air during all experiments. […] Net superoxide production was calculated by subtracting the double integration values of the […] with PEG-SOD2 to the control value at timepoint 15 min.

Test [6] concerns human MCF7 breast cancer cells. The test is described as follows: Cell viability, CellTiter-Glo. Type of test: cell-based. Particulars: increasing doses of DXR ±100 nM MitoQ, 48 h. How it is done: Cells were plated in 96-well plates and left to adhere for 16 hours. In order to avoid reaching full confluence at the endpoint, starting cell count was defined according to doubling time and the duration of the experiment. Following adhesion, cells were treated with the indicated compounds for 48 h, after which staining was done with a CellTiter-Glo Luminescent Cell Viability assay (Promega®, catalogue #G7570), according to supplier's instructions. This method is based on the quantification of intracellular ATP levels.
Background: In ATP-based viability assays light output follows the ATP content of the culture.

Setting [7] is: |log 2 fold change|>1 and P<0.01.

The values that follow come from patent publication US20250270648A1, “MOLECULAR SIGNATURE FOR ASSESSING THE RESPONSIVENESS OF CANCER TO MITOCHONDRIA-TARGETED ANTIOXIDANTS” (UNIVERSITÉ CATHOLIQUE DE LOUVAIN, priority 2021, published 2025).

`COC1=C(OC)C(=O)C(CCCCCCCCCC[P+](c2ccccc2)(c2ccccc2)c2ccccc2)=C(C)C1=O` [MitoQ]: in test [1] (RNAseq, both cell lines), the “EID1 and PEG10 gene transcripts” value was “downregulated”; the “PHGDH-1, SLC7A11, SERPINE1, FTH1, TXNRD1, PSAT1, PCK2, G6PD, ASNS, SLC6A9 and NUPR1 gene transcripts” value is “upregulated”. In addition, in test [1] (setting [7]), the “number of commonly induced transcripts” value was found to be 11 and the “number of commonly repressed transcripts” value is reported as 2. In addition, the “basal, maximal and ATP-linked oxygen consumption rates (OCRs)” value in test [2] was “decreased”. In addition, the OCRs entry in test [3] is “reduced”. In addition, the “basal, maximal and ATP-linked OCRs” value in test [4] is “repressed”. Moreover, the “mitochondrial superoxide and mitochondrial H2O2 production” value in test [5] was “lower”. Moreover, in test [6], the DXR-induced cell killing entry was “did not interfere”.
